# Test results from ChEMBL document CHEMBL1201862, “PubChem BioAssay data set” (2004).
# Activity calls are given as the source filed them.
# How the values were obtained:
# [1] = biological target: T1, Galanin receptor type 3 (Homo sapiens, UniProt O60755); assay: Fluorescence-based cell-based primary high throughput dose response assay to identify antagonists of the Galanin Receptor 3 (GalR3).; type: functional
# T1 sequence (O60755 whole entry): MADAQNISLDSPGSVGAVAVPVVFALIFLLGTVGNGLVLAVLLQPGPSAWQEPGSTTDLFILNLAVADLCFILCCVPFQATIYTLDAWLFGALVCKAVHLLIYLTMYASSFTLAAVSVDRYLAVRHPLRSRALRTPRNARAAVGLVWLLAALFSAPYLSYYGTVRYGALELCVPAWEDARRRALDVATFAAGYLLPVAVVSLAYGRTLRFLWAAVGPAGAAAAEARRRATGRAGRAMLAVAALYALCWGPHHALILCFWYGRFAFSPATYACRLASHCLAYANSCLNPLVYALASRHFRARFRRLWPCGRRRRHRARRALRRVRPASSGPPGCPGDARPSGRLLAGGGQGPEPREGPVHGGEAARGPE
# [2] = cells; type: functional, cell-based; conditions: HEK-CNG
# [3] = NIH-3T3 fibroblast cytotoxicity, dose response, cytotoxicity control, cell-based, fluorescence, Alamar Blue, secondary assay (AID 2327); type: functional;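 note: NIH-3T3 mouse fibroblasts cultured with fluconazole at 8 µg/mL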
# [4] = fluconazole-exposed Candida albicans growth modulators – fluorescence, retest, confirmation (AID 2467); type: functional, cell-based
# [5] = biological target: T2, Serine/threonine-protein phosphatase (Candida dubliniensis (strain CD36 / CBS 7987 / NCPF 3949 / NRRLY-17841) (Yeast), UniProt B9W6M3); assay: blockers of CaCl2-induced CDRE-lacZ signaling – S. cerevisiae, luminescence, secondary, dose response (AID 2388); type: functional, cell-based;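 note: yeast reporter cells carrying a calcineurin-responsive lacZ construct stimulated with calcium chloride; luminescent beta-galactosidase reporter signal in whole cells rather than isolated phosphatase activity; potency for inhibition where a drop in reporter signal means calcineurin blockade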
# T2 sequence (B9W6M3 whole entry): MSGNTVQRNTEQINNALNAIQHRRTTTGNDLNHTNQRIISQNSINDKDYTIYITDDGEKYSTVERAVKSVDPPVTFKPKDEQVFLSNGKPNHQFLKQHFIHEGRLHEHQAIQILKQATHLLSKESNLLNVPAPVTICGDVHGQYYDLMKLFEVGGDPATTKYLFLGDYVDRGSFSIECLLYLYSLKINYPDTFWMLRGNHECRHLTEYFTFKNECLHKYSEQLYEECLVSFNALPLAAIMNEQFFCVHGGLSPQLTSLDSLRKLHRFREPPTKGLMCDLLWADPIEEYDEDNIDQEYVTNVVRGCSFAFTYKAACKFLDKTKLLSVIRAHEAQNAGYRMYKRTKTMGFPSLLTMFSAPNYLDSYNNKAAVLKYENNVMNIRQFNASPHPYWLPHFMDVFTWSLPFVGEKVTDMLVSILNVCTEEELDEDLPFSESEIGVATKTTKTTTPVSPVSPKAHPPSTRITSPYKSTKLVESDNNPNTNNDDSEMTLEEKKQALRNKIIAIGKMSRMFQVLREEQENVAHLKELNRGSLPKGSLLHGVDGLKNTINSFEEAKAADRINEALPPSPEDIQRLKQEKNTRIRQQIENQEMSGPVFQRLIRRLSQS
# [6] = biological target: ATP-dependent molecular chaperone HSP82 (Candida albicans (strain WO-1) (Yeast), UniProt C4YTQ8); assay: steroid-induced GRE reporter decrease in yeast – S. cerevisiae, luminescence, Hsp90 inhibitor project, dose response (AID 2400); type: functional, cell-based;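 note: beta-galactosidase luminescence from glucocorticoid response element reporter as proxy for Hsp90 function; inhibitor potency where signal loss means Hsp90 inhibition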
# [7] = biological target: T3, Corticotropin-releasing factor receptor 2/Corticotropin-releasing factor-binding protein (Homo sapiens, UniProt P24387+Q13324); assay: activators of CRF receptor 2 with binding protein – uHTS hits, confirmation (AID 602473); type: functional; conditions: read-out: EC50_Mean
# T3 sequence (Q13324 whole entry): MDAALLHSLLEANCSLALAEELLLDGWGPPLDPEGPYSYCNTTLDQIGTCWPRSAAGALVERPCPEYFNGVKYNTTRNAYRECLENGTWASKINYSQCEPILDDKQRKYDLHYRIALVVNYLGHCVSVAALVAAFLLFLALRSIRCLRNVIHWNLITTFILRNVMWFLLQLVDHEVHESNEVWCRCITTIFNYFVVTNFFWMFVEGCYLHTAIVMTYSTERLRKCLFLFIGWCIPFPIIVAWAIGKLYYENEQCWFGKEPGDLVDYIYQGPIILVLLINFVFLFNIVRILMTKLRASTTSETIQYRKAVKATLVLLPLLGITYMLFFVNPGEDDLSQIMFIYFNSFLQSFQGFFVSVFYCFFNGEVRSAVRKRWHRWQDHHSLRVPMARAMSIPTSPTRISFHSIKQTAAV
# T3 sequence (P24387 whole entry): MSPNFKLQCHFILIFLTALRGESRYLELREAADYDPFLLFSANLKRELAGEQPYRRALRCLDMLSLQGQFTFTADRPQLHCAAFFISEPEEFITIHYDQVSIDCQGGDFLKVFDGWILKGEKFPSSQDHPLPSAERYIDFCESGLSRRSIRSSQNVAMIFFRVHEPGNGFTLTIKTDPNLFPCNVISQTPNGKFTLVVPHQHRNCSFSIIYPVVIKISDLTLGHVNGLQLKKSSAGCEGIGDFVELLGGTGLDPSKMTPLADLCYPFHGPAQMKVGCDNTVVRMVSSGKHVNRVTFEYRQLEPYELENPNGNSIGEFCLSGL
# [8] = Luminescence Cell-Based Dose Retest to Confirm Inhibitors of Cancer Stem Cells. [Related pubchem assays (depositor defined):AID2717, AID2721]; type: functional; conditions: Homo sapiens
# [9] = biological target: T4, Heat shock factor protein 1 (Mus musculus, UniProt P38532); assay: enhancement of HSF1-driven luciferase signal – cell-based, NIH3T3, luminescence, dose retest, confirmation (AID 435004); type: functional;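 note: stress induced by proteasome inhibitor MG132 added 30 min after compound; luciferase reporter driven by HSF1 response element in NIH3T3 cells; actives raise luminescence as potentiators of the MG132 stress response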
# T4 sequence (P38532 whole entry): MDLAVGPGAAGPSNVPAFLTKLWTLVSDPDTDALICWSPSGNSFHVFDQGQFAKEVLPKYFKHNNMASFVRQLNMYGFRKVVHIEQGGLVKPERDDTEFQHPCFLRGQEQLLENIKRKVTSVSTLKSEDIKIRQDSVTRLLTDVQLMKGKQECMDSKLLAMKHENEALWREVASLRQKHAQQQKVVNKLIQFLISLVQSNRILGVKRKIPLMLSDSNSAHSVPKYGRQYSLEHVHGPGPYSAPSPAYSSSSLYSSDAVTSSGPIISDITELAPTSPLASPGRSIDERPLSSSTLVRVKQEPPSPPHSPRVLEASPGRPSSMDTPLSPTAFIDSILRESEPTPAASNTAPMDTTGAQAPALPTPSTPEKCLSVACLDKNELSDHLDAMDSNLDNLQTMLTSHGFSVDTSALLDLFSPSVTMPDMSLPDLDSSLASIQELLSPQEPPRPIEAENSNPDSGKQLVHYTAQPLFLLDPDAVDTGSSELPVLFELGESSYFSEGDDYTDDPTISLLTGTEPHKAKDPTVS
# [10] = biological target: T5, Small ubiquitin-related modifier 1 (Homo sapiens, UniProt P63165); assay: SUMO1 protein interaction blockers, potency – biochemical, fluorescence polarization, uHTS hits, dose response (AID 624382); type: functional; conditions: read-out: IC50_Mean
# [11] = biological target: T5, Small ubiquitin-related modifier 1; assay: SUMO1 protein-protein binding blockers, potency – biochemical, FRET, dose response (AID 624383); type: functional; conditions: read-out: IC50_Mean
# [12] = biological target: Large T antigen (Simian virus 40, UniProt P03070); type: functional, Betapolyomavirus macacae;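 note: Confirmatory-stage PubChem screen for compounds that inhibit SV40 T antigen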
# [13] = biological target: 26S proteasome non-ATPase regulatory subunit 14 (Homo sapiens, UniProt O00487); assay: inhibition of proteasome subunit RPN11 – biochemical, fluorescence polarization, uHTS hits, confirmation (AID 602368); type: functional
# [14] = biological target: 72 kDa type IV collagenase (Homo sapiens, UniProt P08253); assay: Dose Response validation of uHTS RPN11 inhibitor hits using a MMP-2 Fluorescence assay.; type: functional
# [15] = biological target: Prothrombin (Bos taurus, UniProt P00735); assay: thrombin protease inhibitors – biochemical, fluorescence polarization, uHTS hits, dose response (AID 602369); type: functional
# [16] = tested on: INS1; assay: INS-1E survival protection against cytokine death – cell-based, luminescence, retest, dose response (AID 449756); type: functional; conditions: Rattus norvegicus;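 note: cell death triggered by IL-1 beta plus TNF-alpha plus IFN-gamma mixture; protective hits raise ATP signal compared with cytokine alone wells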
# [17] = biological target: T6, Rac GTPase-activating protein 1 (Homo sapiens, UniProt Q9H0H5); assay: blockers of MgcRacGAP-driven Rac1 GTP hydrolysis – biochemical, ADP Hunter fluorescence, primary and confirmatory, confirmation (AID 624330); type: functional
# T6 sequence (Q9H0H5 whole entry): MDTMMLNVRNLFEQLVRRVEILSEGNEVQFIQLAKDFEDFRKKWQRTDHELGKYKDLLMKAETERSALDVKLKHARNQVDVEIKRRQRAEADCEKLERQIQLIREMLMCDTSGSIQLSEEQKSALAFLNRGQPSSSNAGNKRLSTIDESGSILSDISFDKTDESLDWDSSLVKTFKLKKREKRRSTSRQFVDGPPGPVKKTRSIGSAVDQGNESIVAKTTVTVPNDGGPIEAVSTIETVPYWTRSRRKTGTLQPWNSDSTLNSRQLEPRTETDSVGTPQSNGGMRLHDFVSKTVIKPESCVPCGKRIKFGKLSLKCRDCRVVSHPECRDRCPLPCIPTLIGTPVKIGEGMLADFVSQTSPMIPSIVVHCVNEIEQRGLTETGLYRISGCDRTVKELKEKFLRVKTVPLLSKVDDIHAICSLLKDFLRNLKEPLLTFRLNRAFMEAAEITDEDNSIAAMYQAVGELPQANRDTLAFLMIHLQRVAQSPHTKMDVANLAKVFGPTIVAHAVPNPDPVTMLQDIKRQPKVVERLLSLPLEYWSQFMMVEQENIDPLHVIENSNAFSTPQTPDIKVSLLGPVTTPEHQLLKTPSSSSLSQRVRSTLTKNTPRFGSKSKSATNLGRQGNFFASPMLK
# [18] = tested on: Streptococcus sp. 'group A'; assay: Streptococcus pyogenes SK(-)GAS viability under kanamycin – luminescence, BacTiterGlo, confirmation, counter-screen for streptokinase expression inhibitor project, dose response (AID 1900); type: functional, organism-based
# [19] = biological target: T7, Streptokinase A (Streptococcus pyogenes serotype M1, UniProt P10520); assay: viability-normalized secreted streptokinase activity reduction – plasminogen activation absorbance, OD405, dose response (AID 1914); type: functional, Streptococcus pyogenes M1 GAS;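 note: secreted streptokinase activity via plasminogen activation per viability signal from cell pellet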
# T7 sequence (P10520 whole entry): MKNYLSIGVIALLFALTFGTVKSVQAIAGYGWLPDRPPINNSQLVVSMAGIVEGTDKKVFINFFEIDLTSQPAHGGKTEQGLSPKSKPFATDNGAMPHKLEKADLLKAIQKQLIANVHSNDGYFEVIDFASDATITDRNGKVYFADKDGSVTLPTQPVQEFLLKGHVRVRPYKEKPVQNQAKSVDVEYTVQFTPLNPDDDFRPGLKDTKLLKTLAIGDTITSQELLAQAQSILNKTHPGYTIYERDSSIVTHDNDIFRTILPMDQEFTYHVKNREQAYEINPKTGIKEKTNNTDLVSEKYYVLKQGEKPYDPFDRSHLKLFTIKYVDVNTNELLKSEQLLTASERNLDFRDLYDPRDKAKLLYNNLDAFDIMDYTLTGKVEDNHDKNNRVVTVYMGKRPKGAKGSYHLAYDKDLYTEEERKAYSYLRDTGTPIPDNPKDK
# [20] = tested on: Streptococcus; assay: GAS UMAA2166 growth inhibition – luminescence, BacTiterGlo, counter-screen for streptokinase expression inhibitor project, dose response (AID 1915); type: functional, organism-based;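 note: potency for reduction of bacterial viability or growth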
# [21] = tested on: H9c2; assay: cells; type: functional, cell-based; conditions: Rattus norvegicus, H9c2, Myocardium;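 note: confirmatory concentration-response retest of ultra-high-throughput screening hits for modulation of myocardial damage; cell death induced by hydrogen peroxide oxidative stress; compound pretreatment for 60 min then peroxide exposure for 2 h; potency is for protecting the cells against peroxide damage rather than for killing them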
# [22] = viability loss in HeLa cells – cytotoxicity control for MgcRacGAP inhibitor project, dose response (AID 624300); type: functional
# ATP-dependent molecular chaperone HSP82, sequence (C4YTQ8 whole entry): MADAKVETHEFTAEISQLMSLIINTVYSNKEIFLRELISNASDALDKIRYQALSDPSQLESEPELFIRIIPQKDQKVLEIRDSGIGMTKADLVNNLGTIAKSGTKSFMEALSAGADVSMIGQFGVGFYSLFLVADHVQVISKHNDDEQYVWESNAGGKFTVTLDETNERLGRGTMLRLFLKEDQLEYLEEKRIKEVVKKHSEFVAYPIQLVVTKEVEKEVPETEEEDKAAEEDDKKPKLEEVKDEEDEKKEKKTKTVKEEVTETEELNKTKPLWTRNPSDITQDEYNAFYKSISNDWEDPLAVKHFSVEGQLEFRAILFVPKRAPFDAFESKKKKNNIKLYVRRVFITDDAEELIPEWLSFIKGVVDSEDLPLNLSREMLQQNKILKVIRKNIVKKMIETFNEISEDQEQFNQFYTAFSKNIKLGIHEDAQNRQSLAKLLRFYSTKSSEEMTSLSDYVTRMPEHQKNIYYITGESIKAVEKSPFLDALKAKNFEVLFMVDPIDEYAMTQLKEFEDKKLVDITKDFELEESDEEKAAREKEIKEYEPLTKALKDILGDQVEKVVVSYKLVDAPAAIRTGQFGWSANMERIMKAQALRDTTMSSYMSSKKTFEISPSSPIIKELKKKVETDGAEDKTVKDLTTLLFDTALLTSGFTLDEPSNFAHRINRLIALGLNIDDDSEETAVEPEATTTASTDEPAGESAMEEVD
# T5 sequence (P63165 whole entry): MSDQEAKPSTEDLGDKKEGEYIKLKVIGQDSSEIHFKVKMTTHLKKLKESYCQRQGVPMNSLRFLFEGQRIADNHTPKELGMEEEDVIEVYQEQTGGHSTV
# 26S proteasome non-ATPase regulatory subunit 14, sequence (O00487 whole entry): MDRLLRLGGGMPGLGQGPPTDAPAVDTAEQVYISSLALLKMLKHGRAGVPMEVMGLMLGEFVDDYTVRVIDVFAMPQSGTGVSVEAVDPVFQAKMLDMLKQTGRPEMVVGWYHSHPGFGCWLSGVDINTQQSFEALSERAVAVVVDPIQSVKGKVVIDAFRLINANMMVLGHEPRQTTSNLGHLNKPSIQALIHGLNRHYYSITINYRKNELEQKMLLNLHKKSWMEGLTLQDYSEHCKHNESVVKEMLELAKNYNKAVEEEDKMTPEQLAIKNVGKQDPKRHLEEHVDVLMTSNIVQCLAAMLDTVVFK
# 72 kDa type IV collagenase, sequence (P08253 whole entry): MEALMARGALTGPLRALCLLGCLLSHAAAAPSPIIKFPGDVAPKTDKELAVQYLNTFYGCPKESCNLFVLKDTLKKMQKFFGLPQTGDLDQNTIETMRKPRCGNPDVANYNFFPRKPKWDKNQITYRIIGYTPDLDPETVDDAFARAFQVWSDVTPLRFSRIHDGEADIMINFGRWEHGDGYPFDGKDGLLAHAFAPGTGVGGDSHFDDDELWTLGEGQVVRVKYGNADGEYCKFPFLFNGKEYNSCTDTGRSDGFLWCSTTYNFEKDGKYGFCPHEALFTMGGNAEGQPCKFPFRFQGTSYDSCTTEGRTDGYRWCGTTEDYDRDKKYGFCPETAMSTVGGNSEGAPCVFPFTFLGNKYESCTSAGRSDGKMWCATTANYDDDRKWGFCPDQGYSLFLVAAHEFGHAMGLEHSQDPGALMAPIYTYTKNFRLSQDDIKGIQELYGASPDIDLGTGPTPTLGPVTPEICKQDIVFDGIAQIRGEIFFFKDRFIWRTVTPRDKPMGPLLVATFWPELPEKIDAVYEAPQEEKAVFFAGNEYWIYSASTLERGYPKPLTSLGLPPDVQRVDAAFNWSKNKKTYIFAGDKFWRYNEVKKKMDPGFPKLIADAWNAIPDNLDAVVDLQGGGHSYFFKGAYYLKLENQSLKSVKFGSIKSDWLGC
# Large T antigen, sequence (P03070 whole entry): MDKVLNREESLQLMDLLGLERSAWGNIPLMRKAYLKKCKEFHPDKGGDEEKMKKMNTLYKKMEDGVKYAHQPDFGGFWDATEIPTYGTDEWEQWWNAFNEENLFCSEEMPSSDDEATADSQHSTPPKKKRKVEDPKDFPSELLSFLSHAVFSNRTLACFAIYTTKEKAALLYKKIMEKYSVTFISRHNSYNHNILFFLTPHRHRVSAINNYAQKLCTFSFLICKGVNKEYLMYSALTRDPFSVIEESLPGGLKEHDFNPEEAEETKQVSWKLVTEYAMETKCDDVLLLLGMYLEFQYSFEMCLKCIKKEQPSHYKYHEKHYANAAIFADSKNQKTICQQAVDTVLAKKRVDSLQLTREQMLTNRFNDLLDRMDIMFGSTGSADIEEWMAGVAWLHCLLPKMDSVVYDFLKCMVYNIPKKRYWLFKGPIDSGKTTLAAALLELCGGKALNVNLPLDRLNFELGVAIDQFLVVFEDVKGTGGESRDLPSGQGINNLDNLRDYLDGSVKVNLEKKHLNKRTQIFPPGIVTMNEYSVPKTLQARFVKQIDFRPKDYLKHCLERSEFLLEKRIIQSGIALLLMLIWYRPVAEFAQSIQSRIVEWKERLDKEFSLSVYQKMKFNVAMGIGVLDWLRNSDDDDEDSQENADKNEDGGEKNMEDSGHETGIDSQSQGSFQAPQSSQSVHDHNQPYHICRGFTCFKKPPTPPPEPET
smiles,measurement,setting,value
COCCn1c(C)cc(C(=O)COc2nc3ccccc3nc2C)c1C,IC50,[1],3.67 µM (active)
same,EC50,[2],> 29.9 µM (inactive)
CCc1nnc(NC(=O)CSc2nc(SC)ns2)s1,EC50,[3],> 160 µM (inactive)
same,EC50,[4],2.88 µM (active)
same,EC50,[5],> 180 µM (inactive)
same,EC50,[6],> 160 µM (inactive)
same,EC50,[7],> 53 µM (inactive)
O=C(Nc1nc(-c2ccc(Cl)cc2Cl)cs1)c1ccc(OCC2CCCO2)cc1 (stereo unspecified),IC50,[1],1.07 µM (active)
same,EC50,[2],> 29.9 µM (inactive)
CCOC(=O)c1c(N=C(S)NCC2CCCO2)sc(C)c1C (stereo unspecified),EC50,[3],> 150 µM (inactive)
same,EC50,[4],0.635 µM (active)
same,EC50,[5],> 180 µM (inactive)
same,EC50,[6],16.9 µM (active)
Cn1cc([N+](=O)[O-])c(C(=O)Nc2ccc(-c3nc4ccccc4o3)cc2)n1,AC50,[8],2.45 µM (active)
same,EC50,[9],6.61 µM (active)
same,IC50,[10],> 66.6 µM (inactive)
same,IC50,[11],17.3 µM (active)
O=C1NC(=O)N(c2ccc(Cl)cc2)C(=O)/C1=C\c1ccc(Sc2nc3ccccc3[nH]2)o1,IC50,[12],18.8 µM (active)
same,IC50,[13],42.2 µM (active)
same,IC50,[14],> 100 µM (inactive)
same,IC50,[15],44.9 µM (active)
COc1ccc(C2C(C#N)=C(N)Oc3c2ccc2cccnc32)cc1OC (stereo unspecified),EC50,[3],19.1 µM (inconclusive)
same,EC50,[4],5.01 µM (active)
same,EC50,[5],> 180 µM (inactive)
same,AC50,[16],6.75 µM (active)
same,EC50,[6],> 150 µM (inactive)
CN1C=CC(=CC=C2C=CC(=O)C=C2)C=C1,IC50,[13],31.2 µM (active)
same,IC50,[14],> 100 µM (inactive)
same,IC50,[15],62.7 µM (active)
same,IC50,[17],18.4 µM (active)
COc1ccc(-n2c(/C=C/c3ccc(O)c(OC)c3)nc3ccccc3c2=O)cc1,EC50,[18],22 µM (active)
same,EC50,[19],> 150 µM (not active)
same,EC50,[20],26.5 µM (active)
same,IC50,[21],> 79 µM (inactive)
same,CC50,[22],71 µM (active)
same,IC50,[17],52.4 µM (active)
